# Source: US10183936B2, “Hepatitis B core protein allosteric modulators” (priority 2014, dated 2019)
# Experiments:
# AD38 cells = experiment: Viability of AD38 cells (Promega CellTiter-Glo) at the end of compound treatment; assay type: cell-based; settings: 10 μM compound, 6 days, luminescence normalized against DMSO control wells (controls being 100%)
# Experimental: (§1) Example 56: Assay Measuring Activity of Compounds on Viral Production in and on Viability of AD38 Cells
# (§2) AD38 cells were then re-suspended with 10 mL of Treatment Medium and counted. Wells of a collagen coated 96-well NUNC microtiter plate were seeded at 50,000/well in 180 μL of Treatment Medium, and 20 μL of in treatment media with either 10% DMSO (Control) or a 10× solution of compound in 10% DMSO was added. Plates were incubated for 6 days at 37° C.
# At the end of compound treatment period cell viability was assessed using a Promega CellTiter-Glo protocol. All supernatant was removed the previously treated 96-well microtiter plate, and 50 μL Tetracycline-free treatment medium (DMEM/F12 (1:1), lx Pen/step (cat#: 30-002-CL, Mediatech, Inc), with 2% FBS, Tet-system approved (cat#: 631106, Clontech), and 1% DMSO was added back to each well. Another 50 μL of CellTiter-Glo reagent solution (Promega, G7573) was then added at room temperature and the contents mixed for 2 minutes on an orbital shaker to induce cell lysis. This was followed by incubation at room temperature for 10 minutes to stabilize the luminescent signal. The luminescence was recorded for 0.2 seconds per well on a Tecan multimode platereader (Infinite M1000 pro). The luminescent signal from each well was normalized against that of untreated (DMSO) control wells. All results were reported percent viability (with controls being 100%).
# [1] = tested on: HBV viral production in AD38 cells; experiment: Viral load production in AD38 cells by quantitative PCR of the HBV core sequence in supernatant; assay type: cell-based; settings: Hepatitis B virus, 144 h; 10 μM compound, 6 days at 37° C., viral load in supernatant compared against DMSO control wells; read-out: AD38 Viral Load (CpAM/DMSO %) at 10 μM
# Experimental: as §1, §2
# Viral load production was assayed by quantitative PCR of the core sequence. Briefly, 5 μL of clarified supematant was added to a PCR reaction mixture that contained forward primers HBV-f 5′-CTGTGCCTTGGGTGGCTTT-3′, Reverse primers HBV-r 5′-[…]-3′ and Fluorescent TaqMan™ Probes HBV-probe 5′-FAM/AGCTCCAAA/ZEN/[…]/3IABkFQ-3′ in Quanta Biosciences PerfeCTa® qPCR Toughmix®, and was subsequently on an Applied Biosystems VIIA7 in a final volume of 20 μL. The PCR mixture was incubated at 45° C. for 5 minutes, then 95° C. for 10 min, followed by 40 cycles of 10 seconds at 95° C. and 20 seconds at 60° C. Viral load was quantitated against known standards by using ViiA™ 7 Software. Viral load in the supematant from wells with treated cells were compared against viral load in supernatant from DMSO control wells (≥3 per plate).
Compound,AD38 Viability Normalized Result (CPAM/DMSO %) at 10 μM (AD38 cells) [%],activity at 10 µM [1] [%]
NS(=O)(=O)c1ccc(CCNC(=O)c2ccc3c(c2)NC(=O)c2ccccc2S3)cc1 [Compound 1101],107,15
CN(C)S(=O)(=O)c1ccc(CCNC(=O)c2ccc3c(c2)NC(=O)c2ccccc2S3)cc1 [Compound 1102],100,1
CS(=O)(=O)c1ccc(CCNC(=O)c2ccc3c(c2)NC(=O)c2ccccc2S3)cc1 [Compound 1103],87,2
O=C(NCCc1ccccc1)c1ccc2c(c1)NC(=O)c1ccccc1S2 [Compound 1104],85,1
O=C(NCCC1CCCCC1)c1ccc2c(c1)NC(=O)c1ccccc1S2 [Compound 1105],101,1
O=C(NCc1ccccc1)c1ccc2c(c1)NC(=O)c1ccccc1S2 [Compound 1107],106,2
O=C(NCCCc1ccccc1)c1ccc2c(c1)NC(=O)c1ccccc1S2 [Compound 1108],105,1
O=C(NCCCCc1ccccc1)c1ccc2c(c1)NC(=O)c1ccccc1S2 [Compound 1109],99,6
O=C(NCCc1ccc2ccccc2c1)c1ccc2c(c1)NC(=O)c1ccccc1S2 [Compound 1110],119,2
O=C(NCCc1ccc(-c2ccccc2)cc1)c1ccc2c(c1)NC(=O)c1ccccc1S2 [Compound 1111],89,2
O=C(NCc1ccc(-c2ccccc2)cc1)c1ccc2c(c1)NC(=O)c1ccccc1S2 [Compound 1112],73,4
O=C(NCCc1ccc(F)cc1)c1ccc2c(c1)NC(=O)c1ccccc1S2 [Compound 1113],99,1
COc1ccc(CCNC(=O)c2ccc3c(c2)NC(=O)c2ccccc2S3)cc1 [Compound 1114],104,1
O=C(NCCc1ccc(O)cc1)c1ccc2c(c1)NC(=O)c1ccccc1S2 [Compound 1115],106,1
COC(=O)c1ccc(CCNC(=O)c2ccc3c(c2)NC(=O)c2ccccc2S3)cc1 [Compound 1117],108,67
O=C(NCCc1cccc(O)c1)c1ccc2c(c1)NC(=O)c1ccccc1S2 [Compound 1118],95,61
N#Cc1ccc(CCNC(=O)c2ccc3c(c2)NC(=O)c2ccccc2S3)cc1 [Compound 1120],94,7
O=C(NCCc1ccc(N2CCCCC2)cc1)c1ccc2c(c1)NC(=O)c1ccccc1S2 [Compound 1121],109,6
O=C(NCCc1ccc(Br)cc1)c1ccc2c(c1)NC(=O)c1ccccc1S2 [Compound 1122],86,21
CCCCNC(=O)c1ccc2c(c1)NC(=O)c1ccccc1S2 [Compound 1123],95,62
COc1cccc(CCNC(=O)c2ccc3c(c2)NC(=O)c2ccccc2S3)c1 [Compound 1124],99,80

Compound,AD38 Viability Normalized Result (CPAM/DMSO %) at 10 μM (AD38 cells) [%],activity at 10 µM [1] [%]
COc1ccc(CCNC(=O)c2ccc3c(c2)NC(=O)c2ccccc2S3)cc1OC [Compound 1125],108,20
COc1ccccc1CCNC(=O)c1ccc2c(c1)NC(=O)c1ccccc1S2 [Compound 1127],94,22
O=C(NCCc1cccc(F)c1)c1ccc2c(c1)NC(=O)c1ccccc1S2 [Compound 1130],101,2
CN1C(=O)c2ccccc2Sc2ccc(C(=O)NCCc3cccc(O)c3)cc21 [Compound 1133],99,94
O=C(NCCCCc1ccncc1)c1ccc2c(c1)NC(=O)c1ccccc1S2 [Compound 1149],118,5
O=C(NCCCCC1CCCCC1)c1ccc2c(c1)NC(=O)c1ccccc1S2 [Compound 1150],22,1
CCCCCCNC(=O)c1ccc2c(c1)NC(=O)c1ccccc1S2 [Compound 1151],50,1
CCCCCCCCNC(=O)c1ccc2c(c1)NC(=O)c1ccccc1S2 [Compound 1152],45,1
CN(C)CCOc1ccc(CCNC(=O)c2ccc3c(c2)NC(=O)c2ccccc2S3)cc1 [Compound 1154],50,90
CN(C)CCCOc1ccc(CCNC(=O)c2ccc3c(c2)NC(=O)c2ccccc2S3)cc1.Cl [Compound 1155],103,18
CCOc1ccccc1CCNC(=O)c1ccc2c(c1)NC(=O)c1ccccc1S2 [Compound 1156],106,16
CCOc1cccc(CCNC(=O)c2ccc3c(c2)NC(=O)c2ccccc2S3)c1 [Compound 1157],48,1
Cc1ccccc1CCNC(=O)c1ccc2c(c1)NC(=O)c1ccccc1S2 [Compound 1158],120,37
COc1ccccc1CNC(=O)c1ccc2c(c1)NC(=O)c1ccccc1S2 [Compound 1159],92,8
COc1cccc(CNC(=O)c2ccc3c(c2)NC(=O)c2ccccc2S3)c1 [Compound 1160],105,2
COc1ccc(CNC(=O)c2ccc3c(c2)NC(=O)c2ccccc2S3)cc1 [Compound 1161],99,1
O=C(NCc1ccc(OC(F)(F)F)cc1)c1ccc2c(c1)NC(=O)c1ccccc1S2 [Compound 1162],99,61
Cc1cccc(CNC(=O)c2ccc3c(c2)NC(=O)c2ccccc2S3)c1 [Compound 1163],104,3
Cc1ccc(CNC(=O)c2ccc3c(c2)NC(=O)c2ccccc2S3)cc1 [Compound 1164],103,27
CC(C)(C)c1ccc(CNC(=O)c2ccc3c(c2)NC(=O)c2ccccc2S3)cc1 [Compound 1165],82,5
O=C(NCc1cccc(C(F)(F)F)c1)c1ccc2c(c1)NC(=O)c1ccccc1S2 [Compound 1166],119,10
